Results published in patent publication US4760136A, “Chartreusin derivatives and salts thereof” (Ishihara Sangyo Kaisha, Ltd., priority 1984, dated 1988).
Where a name gives a salt, the structure may show the parent alone.

Experiments:
Type in all cases: in vivo
[1] = test system: ddY mice; test: Acute toxicity, intravenous (once), ddY mice; conditions: formulated per Preparation Example
Text: (§1) In Table 7 are shown acute toxicity values (LD50, mg/kg) in ddY mice in the case of intravenously administering (once) each of the compounds of this invention in the form of preparations shown in the Preparation Examples shown in Table 7.

[2] = test system: P-388 leukemia cells; test: Antitumor activity: P-388 leukemia cells inoculated intraperitoneally, drug administered intravenously, BDF1 mice; conditions: BDF1 mice, P-388 i.p.; for response vs control in vivo at 80 mg/kg: dose f: 80 mg/kg × 3, i.v. on days 1, 5 and 9; for response vs control in vivo at 20 mg/kg: dose b: 20 mg/kg × 3, i.v. on days 1, 5 and 9; for T/C (%) of MST / response vs control in vivo at 40 mg/kg: dose c: 40 mg/kg × 3, i.v. on days 1, 5 and 9
Summary of the method: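 Drug dosing was intravenous on the first, fifth and ninth days after intraperitoneal inoculation of P-388 leukemia cells (1×10^6 per mouse) into BDF1 mice. Vehicles were physiological saline alone, or saline with small amounts of sodium carboxymethyl cellulose or Tween-80.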

[3] = Acute toxicity, intravenous (once), ddY mice; conditions: mouse, in vivo, iv, formulated per Preparation Example
Text: as §1

[4] = Mus musculus, P388, iv, read-out: T/C (%) of MST

In the case of `C=CCCC(=O)Oc1c2cccc(O[C@@H]3O[C@H](C)[C@@H]4OC(c5ccccc5)O[C@@H]4[C@H]3O[C@H]3O[C@H](C)[C@H](O)[C@H](OC)[C@H]3O)c2c2oc(=O)c3c(C)ccc4oc(=O)c1c2c43` (stereo partly shown) [compound 213], the LD50 [1] is reported as at least 80 mg/kg and the response vs control in vivo at 80 mg/kg [2, 4] is reported as 160%.
With `COC1C(O)C(C)OC(OC2C(Oc3cccc4c(OC(=O)C5CCCCC5NC(=O)C(F)(F)F)c5c(=O)oc6ccc(C)c7c(=O)oc(c34)c5c67)OC(C)C3OC(c4ccccc4)OC32)C1O` (single isomer, unassigned) [Compound No. 26, 6-O-(N-Trifluoroacetyl-2-Amino-Cyclohexanecarbonyl)-3',4'-O-Benzylidene-Chartreusin] the LD50 [1] was at least 40 mg/kg, the response vs control in vivo at 20 mg/kg [2, 4] was 195% and the “T/C (%) of MST” value [2] was 220%.
For `COC1C(O)C(C)OC(OC2C(Oc3cccc4c(OC(=O)CCCCCNC(=O)OCc5ccccc5)c5c(=O)oc6ccc(C)c7c(=O)oc(c34)c5c67)OC(C)C3OC(c4ccccc4)OC32)C1O` (stereo not shown) [compound 110], the LD50 [1] was at least 60 mg/kg and the response vs control in vivo at 40 mg/kg [2, 4] was 154%.
Work on `COC1C(O)C(C)OC(OC2C(Oc3cccc4c(OC(=O)CC(C)NC(=O)C(F)(F)F)c5c(=O)oc6ccc(C)c7c(=O)oc(c34)c5c67)OC(C)C3OC(c4ccccc4)OC32)C1O` (stereo not shown) [compound 66] yielded an LD50 [1] of at least 60 mg/kg and a response vs control in vivo at 80 mg/kg [2, 4] of 171%.
`COC1C(O)C(C)OC(OC2C(Oc3cccc4c(OC(=O)CCNC(=O)c5ccccc5)c5c(=O)oc6ccc(C)c7c(=O)oc(c34)c5c67)OC(C)C3OC(c4ccccc4)OC32)C1O` (stereo not shown) [compound 65] showed an LD50 [1] of at least 60 mg/kg and a response vs control in vivo at 80 mg/kg [2, 4] of 175%.
`COC1C(O)C(C)OC(OC2C(Oc3cccc4c(OC(=O)CCCNC(=O)C(F)(F)F)c5c(=O)oc6ccc(C)c7c(=O)oc(c34)c5c67)OC(C)C3OC(c4ccc(F)cc4)OC32)C1O` (stereo not shown) [Compound No. 57] gave an LD50 [1] of at least 80 mg/kg, a response vs control in vivo at 40 mg/kg [2, 4] of 162% and a response vs control in vivo at 80 mg/kg [2, 4] of 208%.
In the case of `COC1C(O)C(C)OC(OC2C(Oc3cccc4c(OC(=O)C5CCCCC5NC(=O)C(F)(F)F)c5c(=O)oc6ccc(C)c7c(=O)oc(c34)c5c67)OC(C)C3OC(c4cccc(F)c4)OC32)C1O` (single isomer, unassigned) [Compound No. 117, 6-O-(N-Trifluoroacetyl-2-Amino-Cyclohexanecarbonyl)-3',4'-O-(m-Fluorobenzylidene)-Chartreusin], the LD50 [1] is reported as at least 30 mg/kg and the response vs control in vivo at 40 mg/kg [2, 4] is reported as 135%.
With `COC1C(O)C(C)OC(OC2C(Oc3cccc4c(OC(=O)CCNC=O)c5c(=O)oc6ccc(C)c7c(=O)oc(c34)c5c67)OC(C)C3OC(c4ccccc4)OC32)C1O` (stereo not shown) [Compound No. 40] the LD50 [1] was at least 100 mg/kg and the response vs control in vivo at 80 mg/kg [2, 4] was 205%.
`COC1C(O)C(C)OC(OC2C(Oc3cccc4c(OC(=O)CC(C)C)c5c(=O)oc6ccc(C)c7c(=O)oc(c34)c5c67)OC(C)C3OC(c4ccccc4)OC32)C1O` (stereo not shown) [compound 227] gave an LD50 [1] of at least 80 mg/kg and a response vs control in vivo at 80 mg/kg [2, 4] of 143%.
In the case of `COC1C(O)C(C)OC(OC2C(Oc3cccc4c(OC(=O)CCN)c5c(=O)oc6ccc(C)c7c(=O)oc(c34)c5c67)OC(C)C3OC(c4ccccc4)OC32)C1O` (stereo not shown) [Compound No. 17], the LD50 [1] is reported as at least 40 mg/kg, the response vs control in vivo at 20 mg/kg [2, 4] is reported as 206% and the “T/C (%) of MST” value [2] is reported as 241%.
For `COC1C(O)C(C)OC(OC2C(Oc3cccc4c(OC(=O)CCNC(=O)C(F)(F)F)c5c(=O)oc6ccc(C)c7c(=O)oc(c34)c5c67)OC(C)C3OC(c4ccccc4)OC32)C1O` (stereo not shown) [Compound No. 41], the LD50 [1] was at least 100 mg/kg and the “T/C (%) of MST” value [2] was 157%.
`COC1C(O)C(C)OC(OC2C(Oc3cccc4c(OC(=O)C(C)CNC(=O)C(F)(F)F)c5c(=O)oc6ccc(C)c7c(=O)oc(c34)c5c67)OC(C)C3OC(c4cccc(F)c4)OC32)C1O` (stereo not shown) [compound 68] showed an LD50 [1] of at least 80 mg/kg, a response vs control in vivo at 40 mg/kg [2, 4] of 148% and a response vs control in vivo at 80 mg/kg [2, 4] of 210%.
In the case of `COC1C(O)C(C)OC(OC2C(Oc3cccc4c(OC(=O)C(C)CNC(=O)C(F)(F)F)c5c(=O)oc6ccc(C)c7c(=O)oc(c34)c5c67)OC(C)C3OC(c4cccc(F)c4)OC32)C1O` (stereo not drawn) [Compound No. 37, 6-O-(N-trifluoroacetyl-β-amino-isobutyryl)-3',4'-O-(m-fluorobenzylidene)-chartreusin], the LD50 [1] is reported as at least 30 mg/kg and the response vs control in vivo at 10 mg/kg ([2]; Mus musculus, P388, iv, dose a: 10 mg/kg × 3, i.v. on days 1, 5 and 9, read-out: T/C (%) of MST) is reported as 146%.
In the case of `COC1C(O)C(C)OC(OC2C(Oc3cccc4c(OC(=O)CCN)c5c(=O)oc6ccc(C)c7c(=O)oc(c34)c5c67)OC(C)C3OC(c4ccccc4)OC32)C1O` (stereo not drawn) [compound 80, 6-O-(β-alanyl)-3',4'-O-benzylidene-chartreusin hydrochloride], the LD50 ([1]; hydrochloride) is reported as at least 80 mg/kg, the response vs control in vivo at 80 mg/kg [2, 4] is reported as 184% and the “T/C (%) of MST” value ([2]; hydrochloride) is reported as 139%.
Compound `COC1C(O)C(C)OC(OC2C(Oc3cccc4c(OC(=O)CCNC(C)=O)c5c(=O)oc6ccc(C)c7c(=O)oc(c34)c5c67)OC(C)C3OC(c4ccccc4)OC32)C1O` (stereo not shown) [Compound No. 29] has an LD50 [1] of at least 80 mg/kg, a response vs control in vivo at 40 mg/kg [2, 4] of 173% and a response vs control in vivo at 80 mg/kg [2, 4] of 221%.
Compound `COC1C(O)C(C)OC(OC2C(Oc3cccc4c(OC(=O)C5CC5)c5c(=O)oc6ccc(C)c7c(=O)oc(c34)c5c67)OC(C)C3OC(c4ccccc4)OC32)C1O` (stereo not shown) [compound 230] has an LD50 [1] of at least 80 mg/kg and a response vs control in vivo at 80 mg/kg [2, 4] of 144%.
Work on `COC1C(O)C(C)OC(OC2C(Oc3cccc4c(OC(=O)CN(C)C(=O)C(F)(F)F)c5c(=O)oc6ccc(C)c7c(=O)oc(c34)c5c67)OC(C)C3OC(c4ccccc4)OC32)C1O` (stereo not shown) [compound 67] yielded an LD50 [1] of at least 60 mg/kg and a response vs control in vivo at 80 mg/kg [2, 4] of 188%.
For `CO[C@H]1[C@@H](O)[C@@H](C)O[C@H](O[C@H]2[C@H](Oc3cccc4c(OC(=O)c5ccccc5Cl)c5c(=O)oc6ccc(C)c7c(=O)oc(c34)c5c67)O[C@H](C)[C@@H]3OC(c4cccc([N+](=O)[O-])c4)O[C@@H]32)[C@@H]1O` (stereo partly shown) [Compound No. 189], the LD50 [3] was at least 80 mg/kg, the response vs control in vivo at 40 mg/kg [2, 4] was 146% and the response vs control in vivo at 80 mg/kg [2, 4] was 214%.
Compound `COC1C(O)C(C)OC(OC2C(Oc3cccc4c(OC(=O)CCNC(C)=O)c5c(=O)oc6ccc(C)c7c(=O)oc(c34)c5c67)OC(C)C3OC(c4cccc(C(F)(F)F)c4)OC32)C1O` (stereo not shown) [Compound No. 53] has an LD50 [3] of at least 80 mg/kg, a response vs control in vivo at 40 mg/kg [2, 4] of 165% and a response vs control in vivo at 80 mg/kg [2, 4] of 239%.
In the case of `CCCC(=O)Oc1c2cccc(OC3OC(C)C4OC(c5ccccc5)OC4C3OC3OC(C)C(O)C(OC)C3O)c2c2oc(=O)c3c(C)ccc4oc(=O)c1c2c43` (stereo not shown) [Compound No. 191, 6-O-(n-Butyryl)-3',4'-O-Benzylidene-Chartreusin], the LD50 [3] is reported as at least 40 mg/kg and the response vs control in vivo at 20 mg/kg [2, 4] is reported as 155%.
In the case of `COc1ccc(C2OC3C(C)OC(Oc4cccc5c(OC(=O)CCNC=O)c6c(=O)oc7ccc(C)c8c(=O)oc(c45)c6c78)C(OC4OC(C)C(O)C(OC)C4O)C3O2)cc1` (stereo not shown) [compound 95], the LD50 [3] is reported as at least 40 mg/kg and the response vs control in vivo at 40 mg/kg [2, 4] is reported as 173%.
Work on `COC1C(O)C(C)OC(OC2C(Oc3cccc4c(OC(=O)C(C)CNC(=O)c5ccccc5)c5c(=O)oc6ccc(C)c7c(=O)oc(c34)c5c67)OC(C)C3OC(c4ccccc4)OC32)C1O` (stereo not shown) [Compound No. 13] yielded an LD50 [3] of at least 40 mg/kg, a response vs control in vivo at 20 mg/kg [2, 4] of 186% and a response vs control in vivo at 40 mg/kg [2, 4] of 262%.
In the case of `COC1C(O)C(C)OC(OC2C(Oc3cccc4c(OC(=O)CC(C)C)c5c(=O)oc6ccc(C)c7c(=O)oc(c34)c5c67)OC(C)C3OC(c4ccccc4)OC32)C1O` (stereo not shown) [Compound No. 169, 6-O-(3-Methyl-n-Butyryl)-3',4'-O-Benzylidene-Chartreusin], the LD50 [3] is reported as at least 40 mg/kg and the response vs control in vivo at 20 mg/kg [2, 4] is reported as 202%.
